Experimental data as given in patent US7732457B2, “Amino-pyridines as inhibitors of β-secretase” (Wyeth LLC, priority 2005, dated 2010).
pIC50: −log10 of the molar value. Where a name gives a salt, the structure may show the parent alone.

Assays:
human BACE1 = human BACE1 (Homo sapiens, UniProt P56817); assay: BACE-1 fluorescent kinetic assay (cleavage of peptide substrate WABC-6); format: biochemical; conditions: 10 nM enzyme, 25 μM substrate WABC-6, Na-Acetate pH 4.5, room temperature
Procedure: Evaluation of BACE-1 Binding Affinity of Test Compounds
Fluorescent Kinetic Assay
Dilution and mixing steps: total reaction volume: 100 μL
100 μM substrate dilution in 1×PBS was prepared, and
Fluorescence Readings: Readings at λex 320 nm and λem 420 nm are taken every 40 sec for 30 min at room temperature and the linear slope for substrate cleavage rate (vi) determined.

Sequence of human BACE1 (P56817 46-501): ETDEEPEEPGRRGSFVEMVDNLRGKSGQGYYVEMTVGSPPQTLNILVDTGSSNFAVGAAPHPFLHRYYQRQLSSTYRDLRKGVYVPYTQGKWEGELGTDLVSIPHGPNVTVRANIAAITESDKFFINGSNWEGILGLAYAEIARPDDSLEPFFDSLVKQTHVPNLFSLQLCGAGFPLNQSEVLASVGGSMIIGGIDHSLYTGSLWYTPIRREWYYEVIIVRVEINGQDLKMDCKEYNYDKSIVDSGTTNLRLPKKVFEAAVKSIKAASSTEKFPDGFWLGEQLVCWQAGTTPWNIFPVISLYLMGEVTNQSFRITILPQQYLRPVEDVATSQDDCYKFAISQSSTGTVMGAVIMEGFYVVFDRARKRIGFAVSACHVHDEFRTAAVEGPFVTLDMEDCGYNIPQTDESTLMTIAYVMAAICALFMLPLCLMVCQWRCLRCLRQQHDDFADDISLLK

melting point [°C] | pIC50 (human BACE1) | BACE 1 IC50 μM (human BACE1) | Structure (SMILES)
86 to 88 |  |  | CCCCCOc1ccc(-c2ccc(-c3ccccc3Cl)n2Cc2ccc(OC)c(NCCCO)n2)cc1 (as salt: hydrochloride) [Example 41, 3-{6-[2-(2-Chloro-phenyl)-5-(4-pentyloxy-phenyl)-pyrrol-1-ylmethyl]-3-methoxy-pyridin-2-ylamino}-propan-1-ol hydrochloride]
130 to 138 |  |  | Nc1cccc(Cn2c(-c3ccc(Oc4ccc(Br)cc4)cc3)ccc2-c2ccccc2Cl)n1 (as salt: hydrochloride) [Example 38, 6-[2-[4-(4-Bromophenoxy)phenyl]-5-(2-chlorophenyl)pyrrol-1-ylmethyl]pyridin-2-ylamine hydrochloride]
 | 5.30 to 5.96 |  | CCCCCNc1ccc(-c2ccc(-c3ccccc3Cl)n2Cc2cccc(N)n2)cc1 [Example 53, 6-[2-(2-Chloro-phenyl)-5-(4-pentylamino-phenyl)-pyrrol-1-ylmethyl]-pyridin-2-ylamine hydrochloride]
126 to 130 |  |  | Nc1cccc(Cn2c(-c3ccc(Oc4nccs4)cc3)ccc2-c2ccccc2Cl)n1 (as salt: hydrochloride) [Example 32, 6-{2-(2-Chloro-phenyl)-5-[4-(thiazol-2-yloxy)-phenyl]-pyrrol-1-ylmethyl}-pyridin-2-ylamine hydrochloride]
 |  | D (D = >5.0 μM-0.10 = μM) | Nc1cccc(Cn2c(-c3ccc(Oc4ccc(Br)cc4)cc3)ccc2-c2ccccc2Cl)n1 [Example 38, 6-[2-[4-(4-Bromophenoxy)phenyl]-5-(2-chlorophenyl)pyrrol-1-ylmethyl]pyridin-2-ylamine hydrochloride]
145 to 150 | 5.30 to 5.96 |  | CCCCC(=O)Nc1ccc(-c2ccc(-c3ccccc3Cl)n2Cc2cccc(N)n2)cc1 [Example 52, Pentanoic acid {4-[1-(6-amino-pyridin-2-ylmethyl)-5-(2-chlorophenyl)-1H-pyrrol-2-yl]-phenyl}-amide]
 |  | D (D = >5.0 μM-0.10 = μM) | Nc1cccc(Cn2c(-c3ccc(-c4ccccc4)cc3)ccc2-c2ccccc2Cl)n1 [Example 27, 6-[2-Biphenyl-4-yl-5-(2-chlorophenyl)pyrrol-1-ylmethyl]pyridin-2-ylamine]
 |  | D (D = >5.0 μM-0.10 = μM) | CCCCCOc1ccc(-c2ccc(-c3ccccc3Cl)n2Cc2ccc(O)c(N)n2)cc1 [Example 42A, 2-Amino-6-[2-(2-chlorophenyl)-5-(4-pentyloxyphenyl)pyrrol-1-ylmethyl]pyridin-3-ol hydrochloride]
98 to 106 | 5.30 to 5.96 |  | Cl.N#CCCCCCOc1ccc(-c2ccc(-c3ccccc3Cl)n2Cc2cccc(N)n2)cc1 [Example 20, 6-{4-[1-(6-Amino-pyridin-2-ylmethyl)-5-(2-chloro-phenyl)-1H-pyrrol-2-yl]-phenoxy}-hexanenitrile hydrochloride]
 | 6.00 to 6.96 |  | Nc1cccc(Cn2c(-c3ccc(-c4cncnc4)cc3)ccc2-c2ccccc2Cl)n1 [Example 29, 6-[2-(2-Chloro-phenyl)-5-(4-pyrimidin-5-yl-phenyl)-pyrrol-1-ylmethyl]-pyridin-2-ylamine]
89 to 92 | 6.00 to 6.96 |  | CCCOc1ccc(-c2ccc(-c3ccccc3Cl)n2Cc2ccc(OCCO)c(N)n2)cc1 [Example 54, 2-[(2-amino-6-{[2-(2-chlorophenyl)-5-(4-propoxyphenyl)-1H-pyrrol-1-yl]methyl}pyridine-3-yl)oxy]ethanol]
 |  | D (D = >5.0 μM-0.10 = μM) | CCCCCOc1ccc(-c2ccc(-c3ccccc3Cl)n2Cc2ccc(OC)c(N)n2)cc1 [Example 40, 6-[2-(2-Chlorophenyl)-5-(4-pentyloxyphenyl)-pyrrol-1-ylmethyl]-3-methoxypyridin-2-ylamine hydrochloride]
135 to 140 |  |  | Nc1cccc(Cn2c(-c3ccc(Oc4ncccn4)cc3)ccc2-c2ccccc2Cl)n1 (as salt: hydrochloride) [Example 31, 6-{2-(2-Chloro-phenyl)-5-[4-(Pyrimidin-2-yloxy)-phenyl]-pyrrol-1-ylmethyl}-pyridin-2-ylamine hydrochloride]
 |  | D (D = >5.0 μM-0.10 = μM) | Nc1cccc(Cn2c(-c3ccc(NC(=O)c4ccccc4)cc3)ccc2-c2ccccc2Cl)n1 [Example 3, N-{4-[1-(6-Amino-pyridin-2-ylmethyl)-5-(2-chloro-phenyl)-1H-pyrrol-2-yl]-phenyl}-benzamide]
 |  | D (D = >5.0 μM-0.10 = μM) | CCCCCOc1ccc(-c2ccc(-c3ccccc3Cl)n2Cc2ccc(N)c(N)n2)cc1 [Example 42B, 6-[2-(2-Chlorophenyl)-5-(4-pentyloxyphenyl)pyrrol-1-ylmethyl]pyridine-2,3-diamine hydrochloride]
 | 5.30 to 5.96 |  | Nc1cccc(Cn2c(-c3ccc(Oc4ncccn4)cc3)ccc2-c2ccccc2Cl)n1 [Example 31, 6-{2-(2-Chloro-phenyl)-5-[4-(Pyrimidin-2-yloxy)-phenyl]-pyrrol-1-ylmethyl}-pyridin-2-ylamine hydrochloride]

melting point [°C] | pIC50 (human BACE1) | BACE 1 IC50 μM (human BACE1) | Structure (SMILES)
80 to 82 | 6.00 to 6.96 |  | Nc1nc(Cn2c(-c3ccc(Br)cc3)ccc2-c2ccccc2Cl)ccc1OCCO [Example 47, 2-{2-Amino-6-[2-(4-bromo-phenyl)-5-(2-chloro-phenyl)-pyrrol-1-ylmethyl]-pyridin-3-yloxy}-ethanol]
 |  | D (D = >5.0 μM-0.10 = μM) | CCCCCCOc1ccc(-c2ccc(-c3ccccc3Cl)n2Cc2cccc(N)n2)cc1.Cl [Example 17, 6-[2-(2-Chloro-phenyl)-5-(4-hexyloxy-phenyl)-pyrrol-1-ylmethyl]-pyridin-2-ylamine hydrochloride]
170 to 172 |  | D (D = >5.0 μM-0.10 = μM) | Nc1cccc(Cn2c(-c3ccc(O)cc3)ccc2-c2ccccc2Cl)n1 [Example 6, 4-[1-(6-Amino-pyridin-2-ylmethyl)-5-(2-chloro-phenyl)-1H-pyrrol-2-yl]-phenol]
184 to 185 | 5.30 to 5.96 |  | CCNC(=O)c1ccc(-c2ccc(-c3ccc(F)cc3)n2Cc2cccc(N)n2)cc1 [Example 61, 4-[1-[(6-aminopyridin-2-yl)methyl]-5-(4-fluorophenyl)-1H-pyrrol-2-yl]-N-ethylbenzamide]
 | 6.00 to 6.96 |  | CC(=O)c1ccc(Oc2ccc(-c3ccc(-c4ccccc4Cl)n3Cc3cccc(N)n3)cc2)cc1 [Example 37, 1-(4-{4-[1-(6-Aminopyridin-2-ylmethyl)-5-(2-chlorophenyl)-1H-pyrrol-2-yl]phenoxy}-phenyl)ethanone hydrochloride]
106 to 107 | 5.30 to 5.96 |  | CCCOc1ccc(-c2ccc(-c3ccccc3)n2Cc2cccc(N)n2)cc1 [Example 56, 6-{[2-phenyl-5-(4-propoxyphenyl)-1H-pyrrol-1-yl]methyl}pyridin-2-amine]
172 to 173 |  | D (D = >5.0 μM-0.10 = μM) | CCOC(=O)c1ccc(-c2ccc(-c3ccc(F)cc3)n2Cc2cccc(N)n2)cc1 [Example 57, Ethyl 4-[1-[(6-aminopyridin-2-yl)methyl]-5-(4-fluorophenyl)-1H-pyrrol-2-yl]benzoate]
 |  | D (D = >5.0 μM-0.10 = μM) | CCCCCOc1ccc(-c2ccc(-c3ccccc3Cl)n2Cc2ccc(OCCCC#N)c(N)n2)cc1 [Example 43B, 4-{2-Amino-6-[2-(2-chlorophenyl)-5-(4-pentyloxyphenyl)pyrrol-1-ylmethyl]-pyridin-3-yloxy}butyronitrile hydrochloride]
161 to 162 |  | D (D = >5.0 μM-0.10 = μM) | CCOC(=O)c1ccc(-c2ccc(-c3ccccc3)n2Cc2cccc(N)n2)cc1 [Example 58, Ethyl 4-{1-[(6-aminopyridin-2-yl)methyl]-5-phenyl-1H-pyrrol-2-yl}benzoate]
116 to 122 |  | D (D = >5.0 μM-0.10 = μM) | Nc1cccc(Cn2c(-c3ccc(NC(=O)c4cccc(Br)c4)cc3)ccc2-c2ccccc2Cl)n1 [Example 2, N-{4-[1-(6-Amino-pyridin-2-ylmethyl)-5-(2-chloro-phenyl)-1H-pyrrol-2-yl]-phenyl}-3-bromo-benzamide]
154 to 158 | 5.30 to 5.96 |  | Nc1cccc(Cn2c(-c3ccc(Br)cc3)ccc2-c2ccccc2Cl)n1 [Example 4, 6-[2-(4-bromo-phenyl)-5-(2-chloro-phenyl)-pyrrol-1-ylmethyl]-pyridin-2-ylamine]
126 to 130 | 6.00 to 6.96 |  | Cl.N#CCCCCOc1ccc(-c2ccc(-c3ccccc3Cl)n2Cc2cccc(N)n2)cc1 [Example 19, 5-{4-[1-(6-Amino-pyridin-2-ylmethyl)-5-(2-chloro-phenyl)-1H-pyrrol-2-yl]-phenoxy}-pentanenitrile hydrochloride]
 | 6.00 to 6.96 |  | Nc1cccc(Cn2c(-c3ccc(Oc4nccs4)cc3)ccc2-c2ccccc2Cl)n1 [Example 32, 6-{2-(2-Chloro-phenyl)-5-[4-(thiazol-2-yloxy)-phenyl]-pyrrol-1-ylmethyl}-pyridin-2-ylamine hydrochloride]
145 to 147 |  |  | CCCCCNc1ccc(-c2ccc(-c3ccccc3Cl)n2Cc2cccc(N)n2)cc1 (as salt: hydrochloride) [Example 53, 6-[2-(2-Chloro-phenyl)-5-(4-pentylamino-phenyl)-pyrrol-1-ylmethyl]-pyridin-2-ylamine hydrochloride]
 |  | D (D = >5.0 μM-0.10 = μM) | CCCCCOc1ccc(-c2ccc(-c3ccccc3Cl)n2Cc2ccc(OCCCO)c(N)n2)cc1 [Example 43A, 3-{(2-Amino-6-[2-(2-chlorophenyl)-5-(4-pentyloxyphenyl)pyrrol-1-ylmethyl]pyridin-3-yloxy}propan-1-ol hydrochloride]
 |  | D (D = >5.0 μM-0.10 = μM) | CCCCCOc1ccc(-c2ccc(-c3ccccc3Cl)n2Cc2ccc(OC)c(NCCCO)n2)cc1 [Example 41, 3-{6-[2-(2-Chloro-phenyl)-5-(4-pentyloxy-phenyl)-pyrrol-1-ylmethyl]-3-methoxy-pyridin-2-ylamino}-propan-1-ol hydrochloride]
